This is an account of results in patent publication US20220169632A1, “METHODS AND MATERIALS FOR INCREASING OR MAINTAINING NICOTINAMIDE MONONUCLEOTIDE ADENYLYL TRANSFERASE-2 (NMNAT2) POLYPEPTIDE LEVELS” (University of Pittsburgh - Of the Commonwealth System of …, priority 2019, published 2022).

The test system of the first test is NMNAT2. The test can be described thus: NMNAT2-Hibit nano-luciferase activity in transfected U87MG cells, 25 μM, 24 hours. Type of test: cell-based. The conditions noted are these: NMNAT2-Hibit luc plasmid, 24 hours (Table C). As to the method:
Selected compounds were tested in vitro. Briefly, U87MG cells were transfected with NMNAT2-Hibit luc plasmid. Cells were treated with a test compound at 25 μM for 24 hours. Cells were then collected and assayed for nano-luciferase activity.
For `Cc1ccc(CNC(=O)Cn2c(-c3cccs3)cc3cc(F)ccc32)o1` [Compound 181119], the “C: Compound efficacy for NMNAT2 activation; increase in NMNAT2 luciferase activity” value is on record as “+ (“+” <20% increase in NMNAT2 luciferase activity.)”.

For the compound `Cc1cc(C)n(CC(=O)NCc2ccccc2)c(=O)c1C#N` [Compound 181120], the “C: Compound efficacy for NMNAT2 activation; increase in NMNAT2 luciferase activity” value was “+ (“+” <20% increase in NMNAT2 luciferase activity.)”.

With `Cc1ccc(CNC(=O)Cn2c(C)cc(C)c(C#N)c2=O)cc1` [Compound 181121], the “C: Compound efficacy for NMNAT2 activation; increase in NMNAT2 luciferase activity” value is recorded as “+ (“+” <20% increase in NMNAT2 luciferase activity.)”.

Turning to `Cc1cc(C)n(CC(=O)NCc2ccc(Cl)cc2)c(=O)c1C#N` [Compound 181122], the “C: Compound efficacy for NMNAT2 activation; increase in NMNAT2 luciferase activity” value is listed as “+ (“+” <20% increase in NMNAT2 luciferase activity.)”.

On to `Cc1cc(C)n(CC(=O)NCc2ccc(F)cc2)c(=O)c1C#N` [Compound 181123], for which the “C: Compound efficacy for NMNAT2 activation; increase in NMNAT2 luciferase activity” value is “+ (“+” <20% increase in NMNAT2 luciferase activity.)”.

Take `COc1ccc(CNC(=O)Cn2c(C)cc(C)c(C#N)c2=O)cc1` [Compound 181124]: the “C: Compound efficacy for NMNAT2 activation; increase in NMNAT2 luciferase activity” value is on record as “+ (“+” <20% increase in NMNAT2 luciferase activity.)”.

As to `COc1cccc(CNC(=O)Cn2c(C)cc(C)c(C#N)c2=O)c1` [Compound 181125], the “C: Compound efficacy for NMNAT2 activation; increase in NMNAT2 luciferase activity” value is listed as “+ (“+” <20% increase in NMNAT2 luciferase activity.)”.

As for `COc1ccccc1CNC(=O)Cn1c(C)cc(C)c(C#N)c1=O` [Compound 181126], the “C: Compound efficacy for NMNAT2 activation; increase in NMNAT2 luciferase activity” value is on record as “+ (“+” <20% increase in NMNAT2 luciferase activity.)”.

As for `COc1ccc(CNC(=O)Cn2c(C)cc(C)c(C#N)c2=O)cc1OC` [Compound 181127], the “C: Compound efficacy for NMNAT2 activation; increase in NMNAT2 luciferase activity” value is listed as “+ (“+” <20% increase in NMNAT2 luciferase activity.)”.

On to `Cc1cc(C)n(CC(=O)NCc2ccco2)c(=O)c1C#N` [Compound 181128], for which the “C: Compound efficacy for NMNAT2 activation; increase in NMNAT2 luciferase activity” value was “+ (“+” <20% increase in NMNAT2 luciferase activity.)”.

With `Cc1cc(C)n(CC(=O)NCC2=CC=CC2)c(=O)c1C#N` [Compound 181129], the “C: Compound efficacy for NMNAT2 activation; increase in NMNAT2 luciferase activity” value is “+ (“+” <20% increase in NMNAT2 luciferase activity.)”.

Take `Cc1cc(C)n(CC(=O)NCc2ccccc2Cl)c(=O)c1C#N` [Compound 181130]: the “C: Compound efficacy for NMNAT2 activation; increase in NMNAT2 luciferase activity” value is on record as “+ (“+” <20% increase in NMNAT2 luciferase activity.)”.

As for `Cc1cc(C)n(CC(=O)NCCC(C)C)c(=O)c1C#N` [Compound 181131], the “C: Compound efficacy for NMNAT2 activation; increase in NMNAT2 luciferase activity” value is reported as “+ (“+” <20% increase in NMNAT2 luciferase activity.)”.

Consider `CSc1ccc(CNC(=O)Cn2c(C)cc(C)c(C#N)c2=O)cc1` [Compound 181132], for which the “C: Compound efficacy for NMNAT2 activation; increase in NMNAT2 luciferase activity” value is listed as “+ (“+” <20% increase in NMNAT2 luciferase activity.)”.

For `Cc1cc(C)n(CC(=O)Nc2ccc(C(=O)NCc3ccco3)cc2)c(=O)c1C#N` [Compound 181133], the “C: Compound efficacy for NMNAT2 activation; increase in NMNAT2 luciferase activity” value is given as “+ (“+” <20% increase in NMNAT2 luciferase activity.)”.

Regarding `Cc1ccc(CNC(=O)c2ccc(NC(=O)Cn3c(C)cc(C)c(C#N)c3=O)cc2)o1` [Compound 181134], the “C: Compound efficacy for NMNAT2 activation; increase in NMNAT2 luciferase activity” value was “+ (“+” <20% increase in NMNAT2 luciferase activity.)”.

For the compound `Cc1cc(C)n(CC(=O)Nc2ccccc2C(=O)NCc2ccco2)c(=O)c1C#N` [Compound 181135], the “C: Compound efficacy for NMNAT2 activation; increase in NMNAT2 luciferase activity” value was “+ (“+” <20% increase in NMNAT2 luciferase activity.)”.

`Cn1c(=O)c(=O)n(CC(=O)NCc2ccco2)c2ccccc21` [Compound 181136]: the “C: Compound efficacy for NMNAT2 activation; increase in NMNAT2 luciferase activity” value was “+ (“+” <20% increase in NMNAT2 luciferase activity.)”.

With `Cc1ccc(CNC(=O)Cn2c(=O)c(=O)n(C)c3ccccc32)o1` [Compound 181137], the “C: Compound efficacy for NMNAT2 activation; increase in NMNAT2 luciferase activity” value is given as “+ (“+” <20% increase in NMNAT2 luciferase activity.)”.

For `CCn1c(=O)c(=O)n(CC(=O)NCc2ccco2)c2ccccc21` [Compound 181138], the “C: Compound efficacy for NMNAT2 activation; increase in NMNAT2 luciferase activity” value was “+ (“+” <20% increase in NMNAT2 luciferase activity.)”.

For the compound `CCn1c(=O)c(=O)n(CC(=O)NCc2ccc(C)o2)c2ccccc21` [Compound 181139], the “C: Compound efficacy for NMNAT2 activation; increase in NMNAT2 luciferase activity” value is given as “+ (“+” <20% increase in NMNAT2 luciferase activity.)”.

As to `Cc1cc2c(=O)n(CC(=O)NCc3ccco3)ccc2s1` [Compound 181140], the “C: Compound efficacy for NMNAT2 activation; increase in NMNAT2 luciferase activity” value is on record as “+ (“+” <20% increase in NMNAT2 luciferase activity.)”.

Regarding `CCn1ccc2cc(CCC(=O)NCc3ccco3)ccc21` [Compound 181141], the “C: Compound efficacy for NMNAT2 activation; increase in NMNAT2 luciferase activity” value is “++ (“++” >20% and <100% increase in NMNAT2 luciferase activity.)”.

Regarding `Cc1ccc(C(CC(=O)NCc2ccco2)c2cn(C)c3ccccc23)cc1` (stereo not shown) [Compound 181142], the “C: Compound efficacy for NMNAT2 activation; increase in NMNAT2 luciferase activity” value is recorded as “+ (“+” <20% increase in NMNAT2 luciferase activity.)”.

As to `Cn1cc(C(CC(=O)NCc2ccco2)c2cccc(F)c2)c2ccccc21` (stereo not shown) [Compound 181143], the “C: Compound efficacy for NMNAT2 activation; increase in NMNAT2 luciferase activity” value is recorded as “+ (“+” <20% increase in NMNAT2 luciferase activity.)”.

Regarding `Cc1cc2ccccc2n1CC(=O)NCc1ccco1` [Compound 181144], the “C: Compound efficacy for NMNAT2 activation; increase in NMNAT2 luciferase activity” value is given as “+ (“+” <20% increase in NMNAT2 luciferase activity.)”.

As for `CC(=O)c1cn(CC(=O)NCc2ccco2)c2ccccc12` [Compound 181145], the “C: Compound efficacy for NMNAT2 activation; increase in NMNAT2 luciferase activity” value is given as “+ (“+” <20% increase in NMNAT2 luciferase activity.)”.

On to `COc1cccc2ccn(CC(=O)NCc3ccco3)c12` [Compound 181146], for which the “C: Compound efficacy for NMNAT2 activation; increase in NMNAT2 luciferase activity” value is “+ (“+” <20% increase in NMNAT2 luciferase activity.)”.

Regarding `O=C(Cn1ccc2ccccc21)NCc1ccco1` [Compound 181147], the “C: Compound efficacy for NMNAT2 activation; increase in NMNAT2 luciferase activity” value is “+ (“+” <20% increase in NMNAT2 luciferase activity.)”.

Regarding `O=C(Cn1ccc2ccccc21)NCc1ccc(F)cc1` [Compound 181148], the “C: Compound efficacy for NMNAT2 activation; increase in NMNAT2 luciferase activity” value is “++ (“++” >20% and <100% increase in NMNAT2 luciferase activity.)”.

Take `O=C(Cn1ccc2cc(Br)ccc21)NCc1ccco1` [Compound 181149]: the “C: Compound efficacy for NMNAT2 activation; increase in NMNAT2 luciferase activity” value was “++ (“++” >20% and <100% increase in NMNAT2 luciferase activity.)”.

`COc1ccc(CNC(=O)Cn2ccc3ccc(F)cc32)cc1OC` [Compound 181150]: the “C: Compound efficacy for NMNAT2 activation; increase in NMNAT2 luciferase activity” value was “+ (“+” <20% increase in NMNAT2 luciferase activity.)”.

Consider `COc1ccccc1CNC(=O)Cn1ccc2ccc(F)cc21` [Compound 181151], for which the “C: Compound efficacy for NMNAT2 activation; increase in NMNAT2 luciferase activity” value was “+ (“+” <20% increase in NMNAT2 luciferase activity.)”.

Consider `O=C(Cn1ccc2ccc(F)cc21)NCc1ccco1` [Compound 181152], for which the “C: Compound efficacy for NMNAT2 activation; increase in NMNAT2 luciferase activity” value is “+ (“+” <20% increase in NMNAT2 luciferase activity.)”.

With `O=C(Cn1ccc2ccc(Br)cc21)NCCCc1ccco1` [Compound 181153], the “C: Compound efficacy for NMNAT2 activation; increase in NMNAT2 luciferase activity” value was “++ (“++” >20% and <100% increase in NMNAT2 luciferase activity.)”.

Take `CC(CCc1ccco1)NC(=O)Cn1ccc2ccc(Br)cc21` (stereo not shown) [Compound 181154]: the “C: Compound efficacy for NMNAT2 activation; increase in NMNAT2 luciferase activity” value is “++ (“++” >20% and <100% increase in NMNAT2 luciferase activity.)”.

Turning to `O=C(NCCn1ccc2c(Cl)cccc21)c1ccco1` [Compound 181155], the “C: Compound efficacy for NMNAT2 activation; increase in NMNAT2 luciferase activity” value is reported as “+ (“+” <20% increase in NMNAT2 luciferase activity.)”.

Consider `O=C(NCCn1ccc2ccc(Cl)cc21)c1ccco1` [Compound 181156], for which the “C: Compound efficacy for NMNAT2 activation; increase in NMNAT2 luciferase activity” value is recorded as “+ (“+” <20% increase in NMNAT2 luciferase activity.)”.

As to `COc1ccc2c(ccn2CCNC(=O)c2ccco2)c1` [Compound 181157], the “C: Compound efficacy for NMNAT2 activation; increase in NMNAT2 luciferase activity” value is given as “+ (“+” <20% increase in NMNAT2 luciferase activity.)”.

With `O=C(NCCn1ccc2cc(Br)ccc21)c1ccco1` [Compound 181158], the “C: Compound efficacy for NMNAT2 activation; increase in NMNAT2 luciferase activity” value was “+ (“+” <20% increase in NMNAT2 luciferase activity.)”.

Consider `Cc1cc2ncn(CC(=O)NCc3ccco3)c2cc1C` [Compound 181159], for which the “C: Compound efficacy for NMNAT2 activation; increase in NMNAT2 luciferase activity” value is “+ (“+” <20% increase in NMNAT2 luciferase activity.)”.

The subject of the next test is NMNAT2. The test can be described thus: NMNAT2-Hibit nano-luciferase activity in transfected U87MG cells, 5 μM, 48 hours. Type of test: cell-based. To be noted: NMNAT2-Hibit luciferase plasmid, 48 hours (Table D). As to the method:
Selected compounds were tested in vitro. Briefly, U87MG cells were transfected with NMNAT2-Hibit luciferase plasmid. Cells were treated with test compound at 5 μM for 48 hours. Cells were then collected and assayed for nano-luciferase activity.
On to `O=C(Cn1cc(C(=O)C(F)(F)F)c2ccccc21)NCc1ccccc1` [BC181201], for which the “D: compound efficacy for NMNAT2 activation; increase in NMNAT2 luciferase activity” value is on record as “+++ (“+++” >100% increase in NMNAT2 luciferase activity.)”.

As for `O=C(Cn1cc(C(=O)C2CC2)c2ccccc21)NCc1ccco1` [BC181202], the “D: compound efficacy for NMNAT2 activation; increase in NMNAT2 luciferase activity” value is listed as “+ (“+” <20% increase in NMNAT2 luciferase activity.)”.

On to `O=C(Cn1cc(C(=O)C2CC2)c2ccccc21)NCc1ccccc1` [BC181203], for which the “D: compound efficacy for NMNAT2 activation; increase in NMNAT2 luciferase activity” value is “++ (“++” >20% and <100% increase in NMNAT2 luciferase activity.)”.

Take `O=C(Cn1cc(C(=O)C2=CC=CC2)c2ccccc21)NCc1ccccc1` [BC181204]: the “D: compound efficacy for NMNAT2 activation; increase in NMNAT2 luciferase activity” value is “++ (“++” >20% and <100% increase in NMNAT2 luciferase activity.)”.

Consider `CC1CCN(C(=O)Cn2cc(C(=O)c3ccccc3)c3ccccc32)CC1` [BC181205], for which the “D: compound efficacy for NMNAT2 activation; increase in NMNAT2 luciferase activity” value is “+ (“+” <20% increase in NMNAT2 luciferase activity.)”.

Take `O=C(Cn1cc(C(=O)c2ccccc2)c2ccccc21)NCc1ccco1` [BC181206]: the “D: compound efficacy for NMNAT2 activation; increase in NMNAT2 luciferase activity” value is “++ (“++” >20% and <100% increase in NMNAT2 luciferase activity.)”.

Take `O=C(Cn1cc(C(=O)c2ccccc2)c2ccccc21)NCC1=CC=CC1` [BC181207]: the “D: compound efficacy for NMNAT2 activation; increase in NMNAT2 luciferase activity” value is “++ (“++” >20% and <100% increase in NMNAT2 luciferase activity.)”.

Turning to `Cc1cccc(NC(=O)Cn2cc(C(=O)c3ccccc3)c3ccccc32)c1` [BC181208], the “D: compound efficacy for NMNAT2 activation; increase in NMNAT2 luciferase activity” value is “+ (“+” <20% increase in NMNAT2 luciferase activity.)”.
